Reference: the supplement of paper PMC11451515

System: SEM cells
Assay: cell viability relative to DMSO control; higher = less cytotoxic
Details: 48 h
Outline: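 Library compounds in DMSO were pin-dosed into 1536-well plates (5 μl) holding NOMO1 or SEM (500 cells/well) or P12-Ichikawa (1000 cells/well) leukemia cells, across an 11-point threefold series of 47 μM to 0.79 nM. Each cell line had been adapted for at least four passages in each medium. CellTiter-Glo One luminescence was read after 48 h at 37°C. Viability is the per-plate percentage relative to DMSO wells, with cell-free wells as background.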

[1] = HPLM + 10% dialyzed FBS, 0.000781 µM
[2] = HPLM + 10% dialyzed FBS, 0.00234 µM
[3] = HPLM + 10% dialyzed FBS, 0.00702 µM
[4] = HPLM + 10% dialyzed FBS, 0.0211 µM
[5] = HPLM + 10% dialyzed FBS, 0.0632 µM
[6] = HPLM + 10% dialyzed FBS, 0.19 µM
[7] = HPLM + 10% dialyzed FBS, 0.569 µM
[8] = HPLM + 10% dialyzed FBS, 1.71 µM
[9] = HPLM + 10% dialyzed FBS, 5.12 µM
[10] = HPLM + 10% dialyzed FBS, 15.4 µM
[11] = HPLM + 10% dialyzed FBS, 46.1 µM
[12] = RPMI 5 mM glucose + 10% FBS, 0.000781 µM
[13] = RPMI 5 mM glucose + 10% FBS, 0.00234 µM
[14] = RPMI 5 mM glucose + 10% FBS, 0.00702 µM
[15] = RPMI 5 mM glucose + 10% FBS, 0.0211 µM
[16] = RPMI 5 mM glucose + 10% FBS, 0.0632 µM
[17] = RPMI 5 mM glucose + 10% FBS, 0.19 µM
[18] = RPMI 5 mM glucose + 10% FBS, 0.569 µM
[19] = RPMI 5 mM glucose + 10% FBS, 1.71 µM
[20] = RPMI 5 mM glucose + 10% FBS, 5.12 µM
[21] = RPMI 5 mM glucose + 10% FBS, 15.4 µM
[22] = RPMI 5 mM glucose + 10% FBS, 46.1 µM
[23] = RPMI 5 mM glucose + 10% dialyzed FBS, 0.000781 µM
[24] = RPMI 5 mM glucose + 10% dialyzed FBS, 0.00234 µM
[25] = RPMI 5 mM glucose + 10% dialyzed FBS, 0.00702 µM
[26] = RPMI 5 mM glucose + 10% dialyzed FBS, 0.0211 µM
[27] = RPMI 5 mM glucose + 10% dialyzed FBS, 0.0632 µM
[28] = RPMI 5 mM glucose + 10% dialyzed FBS, 0.19 µM
[29] = RPMI 5 mM glucose + 10% dialyzed FBS, 0.569 µM
[30] = RPMI 5 mM glucose + 10% dialyzed FBS, 1.71 µM
[31] = RPMI 5 mM glucose + 10% dialyzed FBS, 5.12 µM
[32] = RPMI 5 mM glucose + 10% dialyzed FBS, 15.4 µM
[33] = RPMI 5 mM glucose + 10% dialyzed FBS, 46.1 µM

| Compound | cell viability [1] [%] | cell viability [2] [%] | cell viability [3] [%] | cell viability [4] [%] | cell viability [5] [%] | cell viability [6] [%] | cell viability [7] [%] | cell viability [8] [%] | cell viability [9] [%] | cell viability [10] [%] | cell viability [11] [%] | cell viability [12] [%] | cell viability [13] [%] | cell viability [14] [%] | cell viability [15] [%] | cell viability [16] [%] | cell viability [17] [%] | cell viability [18] [%] | cell viability [19] [%] | cell viability [20] [%] | cell viability [21] [%] | cell viability [22] [%] | cell viability [23] [%] | cell viability [24] [%] | cell viability [25] [%] | cell viability [26] [%] | cell viability [27] [%] | cell viability [28] [%] | cell viability [29] [%] | cell viability [30] [%] | cell viability [31] [%] | cell viability [32] [%] | cell viability [33] [%] |
| --- | --- | --- | --- | --- | --- | --- | --- | --- | --- | --- | --- | --- | --- | --- | --- | --- | --- | --- | --- | --- | --- | --- | --- | --- | --- | --- | --- | --- | --- | --- | --- | --- | --- |
| CN[C@H]1CCC2=CC(=C(OC)C(=C2C/3=C/C=C(OC)\C(=O)/C=C13)OC)OC | 108 | 102 | 64.8 | 23 | 24.1 | 28.6 | 23.3 | 18.4 | 13.4 | 12 | 4.23 | 123 | 122 | 85 | 16.8 | 20.8 | 21.6 | 18 | 14.3 | 9.18 | 7.14 | 2.84 | 97.1 | 88.9 | 62.8 | 17.8 | 21.4 | 23.9 | 20.4 | 12.6 | 9.12 | 7.84 | 3.33 |
| O=C(Nc1cc(Cl)cc2c1[nH]c1cnccc12)c1cccnc1 | 121 | 121 | 116 | 134 | 124 | 122 | 118 | 141 | 133 | 127 | 113 | 109 | 108 | 96.3 | 117 | 126 | 125 | 128 | 129 | 138 | 121 | 124 | 113 | 107 | 109 | 108 | 100 | 98.5 | 116 | 125 | 123 | 128 | 117 |
| COc1ccc([C@@H]2CC(=O)c3c(O)cc(O[C@@H]4O[C@H](CO[C@@H]5O[C@@H](C)[C@H](O)[C@@H](O)[C@H]5O)[C@@H](O)[C@H](O)[C@H]4O)cc3O2)cc1O | 98.6 | 101 | 119 | 114 | 109 | 120 | 103 | 102 | 112 | 107 | 74 | 117 | 106 | 107 | 102 | 111 | 106 | 115 | 116 | 103 | 111 | 52.7 | 110 | 138 | 108 | 115 | 126 | 114 | 131 | 120 | 119 | 127 | 44 |
| Cc1nc2cnc3ccc(C#Cc4cccnc4)cc3c2n1-c1ccc(C(C)(C)C#N)cc1 | 65.5 | 72.3 | 84.3 | 86.5 | 45.2 | 43.3 | 28.4 | 34 | 32.3 | 33.2 | 17 | 87.7 | 104 | 104 | 110 | 56.2 | 60.2 | 47.8 | 34.2 | 31 | 32.4 | 16.2 | 69.8 | 82.4 | 84.3 | 78.4 | 50.4 | 48.9 | 44.2 | 37.2 | 31.6 | 32.7 | 15.7 |
| CCOC(=O)N1CCN(/[N+]([O-])=N/Oc2ccc([N+](=O)[O-])cc2C#N)CC1 | 85 | 88.8 | 86.5 | 91.4 | 120 | 106 | 109 | 25.2 | 15.3 | 13.6 | 9.4 | 104 | 108 | 106 | 109 | 110 | 125 | 114 | 16 | 10.6 | 10.3 | 7.12 | 106 | 92.3 | 108 | 107 | 114 | 117 | 104 | 22.4 | 12.1 | 12.2 | 9.24 |
| NC\1=N\C(=O)N(\C=C1)[C@@H]2O[C@H](CO)[C@@H](O)[C@@H]2O | 23.7 | 26.1 | 17.2 | 15.7 | 13.3 | 11 | 10.9 | 8.22 | 7.91 | 7.2 | 3.82 | 37.4 | 37.7 | 23.5 | 21.1 | 11.4 | 12.1 | 10.4 | 8.65 | 7.25 | 6.17 | 1.99 | 16.3 | 15.2 | 14.2 | 8.59 | 7.4 | 7.91 | 6.93 | 4.74 | 3.6 | 3.65 | 1.52 |
| C[C@@H](Oc1cc(-c2cnn(C3CCNCC3)c2)cnc1N)c1c(Cl)ccc(F)c1Cl | 105 | 121 | 123 | 124 | 121 | 114 | 111 | 110 | 61.6 | 35.1 | 23.5 | 81.4 | 78.5 | 85.6 | 83.6 | 82.5 | 71.3 | 83.4 | 77.3 | 58.4 | 29.5 | 13.6 | 112 | 124 | 114 | 114 | 97.1 | 113 | 120 | 116 | 91.5 | 33.3 | 28.3 |
| CC[C@H](/C=C/[C@@H](C)[C@H]1CC[C@H]2[C@@H]3CC=C4C[C@@H](O)CC[C@]4(C)[C@H]3CC[C@]12C)C(C)C | 100 | 77.3 | 94.8 | 94.8 | 86.4 | 108 | 81.7 | 100 | 95.3 | 79.1 | 89.3 | 102 | 83.8 | 103 | 95.2 | 101 | 96.8 | 93.3 | 104 | 105 | 87.4 | 84.2 | 98 | 92.7 | 93.3 | 104 | 111 | 90.6 | 93.5 | 108 | 94.1 | 87.6 | 93.5 |
| CC(C)CNc1ccnc(NCc2csc(-c3ccccc3)n2)n1 | 88.4 | 107 | 104 | 100 | 121 | 113 | 107 | 120 | 108 | 64.2 | 61.1 | 110 | 110 | 127 | 113 | 138 | 145 | 142 | 138 | 113 | 88.9 | 68.2 | – | – | – | – | – | – | – | – | – | – | – |
| C[C@]12COC(=O)C[C@@H]1CC[C@@H]1[C@@H]2CC[C@@]2(C)[C@H]1CC[C@]2(C)O | 96.4 | 97.7 | 95.7 | 105 | 94 | 93.3 | 85.5 | 96.6 | 101 | 86.3 | 88.4 | 105 | 110 | 104 | 100 | 106 | 106 | 105 | 101 | 95.9 | 90 | 78.4 | 98.2 | 109 | 104 | 111 | 121 | 109 | 101 | 92 | 101 | 89.5 | 78.6 |
| CC[S+](=O)([O-])c1cccc(-c2cc(C(=O)NC3CCN(C)CC3)c(C)c3[nH]c4ncc(C)cc4c23)c1 | 109 | 103 | 130 | 110 | 124 | 101 | 52.3 | 38.6 | 30.2 | 18.8 | 8.97 | 114 | 120 | 140 | 120 | 138 | 83.2 | 46.6 | 27.7 | 20.6 | 12.9 | 5.92 | 99.2 | 92.5 | 135 | 127 | 118 | 82.6 | 46 | 31.9 | 23.8 | 20.6 | 6.33 |
| COc1ccc([S+](=O)([O-])N(C(C)=O)c2ccccc2/C=C/c2cc[n+]([O-])cc2)cc1 | 124 | 122 | 133 | 141 | 125 | 125 | 124 | 55.4 | 26.1 | 26.5 | 23 | 122 | 131 | 115 | 126 | 97.1 | 103 | 111 | 39.1 | 20.3 | 18.4 | 13.4 | – | – | – | – | – | – | – | – | – | – | – |
| C[C@H]1COC2=C3N1\C=C(C(O)=O)/C(=O)C3=CC(=C2N4CCN(C)CC4)F | 102 | 117 | 117 | 108 | 106 | 110 | 92.9 | 68.7 | 68.2 | 65.4 | 52.7 | 105 | 115 | 102 | 115 | 90.6 | 81.4 | 94.7 | 73.4 | 63.6 | 58.6 | 31.9 | 90 | 109 | 112 | 99.1 | 90.2 | 96.4 | 88.7 | 64.1 | 76.9 | 70.4 | 69.4 |
| CC(C)N[C@@H]1CCn2c(=O)[nH]c3cccc(c32)[C@H]1O | 107 | 119 | 101 | 104 | 112 | 108 | 120 | 112 | 122 | 122 | 100 | – | – | – | – | – | – | – | – | – | – | – | 102 | 112 | 113 | 122 | 125 | 123 | 107 | 117 | 101 | 125 | 102 |
| CN1CCN(C2=Nc3cc(Cl)ccc3Nc3ccccc32)CC1 | 85.6 | 93.8 | 108 | 107 | 83.2 | 111 | 109 | 121 | 113 | 106 | 25.6 | 93 | 96.1 | 107 | 96.1 | 68.9 | 92.9 | 103 | 110 | 109 | 112 | 20.6 | 94.3 | 116 | 104 | 83.1 | 83.5 | 118 | 112 | 123 | 110 | 92 | 22.5 |
| C[C@](Cc1c[nH]c2ccccc12)(NC(=O)OC1C2CC3CC(C2)CC1C3)C(=O)NC[C@H](NC(=O)CCC(=O)O)c1ccccc1 (stereo not given in full) | 88.1 | 87.3 | 112 | 106 | 124 | 129 | 121 | 123 | 116 | 126 | 120 | 96.8 | 82.8 | 110 | 121 | 105 | 149 | 148 | 135 | 128 | 125 | 132 | 113 | 91 | 121 | 126 | 118 | 137 | 134 | 142 | 136 | 168 | 123 |
